Test results from patent US20100021519A1, “Compositions and Methods for Treating or Preventing Diseases of Body Passageways” (priority 2006, published 2010).
Where two headings read alike, the source gives them in different places.

Tests used:
[1] = for THX level, plasma / THX tissue level, lung: rat; for THX level, plasma: intratracheal 3 × 4 mg/kg; for THX tissue level, lung: intratracheal THX-polymer formulation 3 × 4 mg/kg, LC-MS
Method: A screening formulation of thalidomide (THX) and polymer was used for the studies and the rat was chosen a preclinical model.
A pilot pharmacokinetic (PK) study was performed to estimate tracheo-bronchial and lung tissue levels after intra-tracheal application of THX-polymer formulation.
Method: A 10 mg/ml THX-polymer formulation was delivered (to anesthetized rats) at a dose of 4 mg/Kg at a volume of 100 μl dosed 3 times in 4 rats at 30 min intervals. The animals were anesthetized while dosing. […] Blood, tracheo-bronchial and lung tissue was sampled at 20 and 40 min past the third dose. Samples were frozen until processed for LC-MS analysis. […] Only the plasma and lung tissue were analyzed by LC-MS.
Method: A preliminary screening LCMS method was developed for quantitating THX in tissues and plasma. […] The equipment used was a SCIEX PE 3000.
Tissue and Plasma Extraction: The tissue was ground (glass-glass homogenizer) and extracted with 70:30 0.1% formic acid in acetonitrile and 0.1% formic acid in water at a 1:3 ratio of tissue to solvent. Plasma is extracted with the same solvent as the tissue at a 1:2 ratio of plasma to solvent. The supernatant extract was subject to LCMS analysis.

liver and lung cancer = details: preliminary reports, cited from earlier work
[2] = Pilot in situ intra-tracheal infusion of THX-polymer formulation in rats immediately after termination; assay type: in vivo, rat; details: for THX tissue level, trachea: in situ infusion over 30 mins, 8 mg/kg, 200 μl, tissue harvested after 2 hours
Procedure: A pilot study of in situ intra-tracheal infusion was performed to estimate tracheal and lung tissue levels after in situ intra-tracheal infusion of THX-polymer formulation.
Method: Two rats (immediately after termination) were intra-tracheally infused over 30 mins with a THX-polymer formulation. The dose was 8 mg/kg and volume was 200 μl. After infusion these were wrapped for 2 hours in a warm heating pad. Tracheo-bronchial and lung tissue were harvested after wiping the lumen area of the tracheo-bronchial lumen with a tissue and spatula (to take off any adsorbed drug) at the end of 2 hours. Samples were frozen at −80 C until processed and analyzed by LC-MS. Sample extraction was conducted at AraVasc Inc. The processed samples were analyzed at Alta Analytical laboratories by LC-MS.

[3] = rats, intra-tracheal THX-polymer formulation, 12 mg/kg dose (100 μl dosed 3 times)
[4] = clinical trials in liver and lung cancer

In the case of O=C1CCC(N2C(=O)c3ccccc3C2=O)C(=O)N1 (racemic) [THX, 2-(2,6-dioxo-3-piperidinyl)-1H-isoindole-1,3(2H)-dione], the “THX level, plasma” value ([1]; 100 μl, 20 mins post 3rd dose, unit of the table head) is reported as 0.19 ng/mL, the “THX level, plasma” value ([1]; 100 μl, 40 mins post 3rd dose, unit of the table head) is reported as 0.44 ng/mL and the “THX level, plasma” value ([1]; 20 mins post 3rd dose, unit of the text) is reported as 190 ng/mL. The “THX level, plasma” value ([1]; 40 mins post 3rd dose, unit of the text) was 440 ng/mL, the “THX tissue level, lung” value ([1]; 100 μl, 20 mins post 3rd dose) was 21.80 μg/100 mg and the “THX tissue level, lung” value ([1]; 100 μl, 40 mins post 3rd dose) was 16.81 μg/100 mg. The “Distribution/diffusion into the lung tissue and vasculature (in words)” value ([1]; rats, intra-tracheal THX-polymer formulation, 12 mg/kg dose) was “good distribution/diffusion into the lung tissue and vasculature”, the “THX levels in lung tissue (in words)” value [1, 3] was “High levels” and the “THX levels in plasma (in words)” value [1, 3] was “low levels”. For the same compound, the Disease control rates (liver and lung cancer; [4]) was 8%-57%, the Response rates (liver and lung cancer; [4]) was 4%-10% and the “Toxicity in clinical trials (in words)” value (liver and lung cancer) was “associated with systemic toxicities”. The “THX tissue level, trachea” value ([2]; Rat 1) was 211.21 μg/100 mg, the “THX tissue level, trachea” value ([2]; Rat 2) was 290.36 μg/100 mg and the “THX levels in tracheo-bronchial and lung tissue (in words)” value ([2]; rats, in situ intra-tracheal infusion (0.5 hr), 8 mg/kg dose) was “High levels”.
